Measurements: patent publication US12174192B2, “Methods for detecting and treating cancers having adenosine pathway activation” (Corvus Pharmaceuticals, Inc., priority 2018, dated 2024)
Entries after “also recorded” stand apart in the source; their conditions may differ.

Tests used:
Type in all cases: cell-based
[1] = tested on: human peripheral blood mononuclear cells (PBMCs); assay: NanoString mRNA quantification in NECA-treated, anti-CD3/CD28-activated PBMCs; details: 0.1 μM, 1 μM, and/or 10 μM NECA vs vehicle-treated control
Protocol: (§1) RNA purified from normal, healthy human peripheral blood mononuclear cells (PBMCs) treated with 5′-N-ethylcarboxamidoadenosine (NECA) and activated with anti-CD3/CD28 antibody were analyzed by NanoString hybridization-based quantification (NanoString Technologies, Inc.). […] Each dot represents the expression level of a specific gene. Dot shade represents the concentration of NECA used and/or different PBMC donors.

[2] = tested on: human peripheral blood mononuclear cells (PBMCs); assay: RNA sequencing (RNA-Seq) of NECA-treated, anti-CD3/CD28-activated PBMCs
Protocol: as §1, with “donors. […] Data were confirmed by RNA sequencing (RNA-Seq).” for “donors.”

PBMCs = assay: CXCL5 protein ELISA in culture supernatants of PBMCs treated with NECA +/- CPI-444; details: PBMCs from two human donors; two days after anti-CD3/CD28 activation; DMSO vehicle control
Protocol: Expression of CXCL5 was determined by ELISA 2 days after activation.
FIGS. 2B and 2C show the response of PBMCs from two different donors to NECA+/−CPI-444 treatment. DMSO was used as vehicle control. […] This control helps establish that the induction of CXCL5 is specific to signaling through adenosine receptors.
NECA activation of CXCL5 protein expression was evaluated. PBMCs were harvested from two different human donors. […] CPI-444 (Corvus Pharmaceuticals) is an antagonist of the adenosine A2A receptor. CXCL5 protein in the culture supernatants was evaluated by ELISA two days after activation. CXCL5 expression is activated by NECA. […] This establishes that the induction of CXCL5 is specific to signaling through adenosine receptors.

## CCNC(=O)[C@H]1O[C@@H](n2cnc3c(N)ncnc32)[C@H](O)[C@@H]1O [NECA, 5′-N-ethylcarboxamidoadenosine]
[1]
  logFC CD14 expression: 0.4485
  logFC CD86 expression: 0.3148
  logFC CLEC5A expression: 0.3833
  logFC CXCL1 expression: 0.6909
  logFC CXCL2 expression: 1.093
  logFC CXCL3 expression: 1.101
  logFC CXCL5 expression: 1.338
  logFC CXCL6 expression: 0.6535
  logFC IL1A expression: 0.6367
  logFC IL1B expression: 0.6345
  logFC IL6 expression: 0.7014
  logFC IL8 expression: 0.6411
  logFC IL23A expression: 0.4628
  logFC IL24 expression: 0.5768
  logFC PLAUR expression: 0.5031
  logFC PPBP expression: 0.683
  logFC PTGS2 expression: 0.6892
  logFC SLC11A1 expression: 0.7022
  logFC TBX21 expression: −0.1238
  logFC THBS1 expression: 0.8703
[2]; Control (DMSO) vs 0.1 μm NECA
  logFC CCL24 expression: −1.068
  logFC CD93 expression: 0.9975
  logFC CSF3 expression: 1.603
  logFC CXCL2 expression: 1.452
  logFC CXCL3 expression: 1.694
  logFC CXCL5 expression: 2.388
  logFC EHF expression: −0.2753
  logFC EML6 expression: 0.2117
  logFC EPB41L3 expression: 1.183
  logFC FUT7 expression: −0.2135
  logFC HAS1 expression: 2.059
  logFC IL23A expression: 0.7971
  logFC INHBA expression: 0.5196
  logFC KLC4 expression: 0.216
  logFC LAYN expression: 0.4228
  logFC MRPL11 expression: −0.19
  logFC MS4A7 expression: 0.9319
  logFC NPR1 expression: 0.7892
  logFC OST4 expression: −0.2352
  logFC PADI2 expression: 0.4802
  logFC PTGS2 expression: 1.184
  logFC SLC7A7 expression: 0.5935
  logFC SPON1 expression: 0.3611
  logFC ST6GALNAC2 expression: 0.5342
  logFC SYTL3 expression: 0.2894
  logFC WDR83OS expression: −0.2872
  logFC ZBTB18 expression: 0.2431
[2]; Control (DMSO) vs 1 μm NECA
  logFC CCDC60 expression: 0.07658
  logFC CD93 expression: 1.454
  logFC CSF3 expression: 2.802
  logFC CXCL2 expression: 2.361
  logFC CXCL3 expression: 2.573
  logFC CXCL5 expression: 3.451
  logFC EHF expression: −0.2522
  logFC EMR3 expression: 1.364
  logFC EPB41L3 expression: 1.854
  logFC EREG expression: 1.89
  logFC FUT7 expression: −0.4158
  logFC GPR157 expression: 0.9283
  logFC HAS1 expression: 3.238
  logFC IL23A expression: 1.363
  logFC IL24 expression: 2.876
  logFC INHBA expression: 0.9638
  logFC LAYN expression: 0.5277
  logFC MS4A7 expression: 1.535
  logFC OST4 expression: −0.1747
  logFC PADI2 expression: 0.7173
  logFC PID1 expression: 1.729
  logFC PTGS2 expression: 2.23
  logFC SLC7A7 expression: 0.9514
  logFC SPON1 expression: 0.5667
  logFC ST6GALNAC2 expression: 0.8306
  logFC TGIF1 expression: 0.4769
  logFC ZBTB18 expression: 0.3385
[2]; Control (DMSO) vs 10 μm NECA
  logFC CCNE1 expression: −0.4518
  logFC CD93 expression: 1.895
  logFC CD300E expression: 1.71
  logFC CSF3 expression: 3.508
  logFC CXCL2 expression: 3.011
  logFC CXCL3 expression: 3.106
  logFC CXCL5 expression: 3.354
  logFC DFNA5 expression: 0.6559
  logFC ECEL1 expression: 0.6918
  logFC EPB41L3 expression: 2
  logFC GALM expression: −0.3189
  logFC GBP6 expression: −0.8039
  logFC GPR157 expression: 1.139
  logFC HAS1 expression: 3.807
  logFC IL5 expression: −0.6885
  logFC IL23A expression: 1.332
  logFC INHBA expression: 1.192
  logFC LAP3 expression: −0.4286
  logFC LOC100505585 expression: 0.6639
  logFC NID1 expression: 1.087
  logFC PADI2 expression: 0.9386
  logFC PID1 expression: 2.124
  logFC PTGS2 expression: 2.349
  logFC RHCG expression: 0.5767
  logFC SLC7A7 expression: 0.9134
  logFC SPON1 expression: 0.568
  logFC ST6GALNAC2 expression: 0.876
PBMCs
  CXCL5 protein in culture supernatants (ELISA), effect of NECA: activated; also recorded: dose-dependent increase in CXCL5
